Assay results as given in patent US8071558B2, “Application of D-psicose to suppression of abnormal circadian increase in blood glucose level” (Rare Sugar Production Technical Research Laboratories, LLC., priority 2005, dated 2011).

Key:
[1] = tested on: diabetic rats (fatty Zucker rats); settings: cited from earlier work
Male Wistar rats [2] = assay: Soluble starch administration experiment, plasma glucose; format: in vivo, rat; settings: for Plasma glucose level, 0 min: before soluble starch 2 g/kg + test sugar 200 mg/kg; for Plasma glucose level, 30 min / Plasma glucose level, 60 min / Plasma glucose level, 90 min / Plasma glucose level, 120 min / ΔAUC of plasma glucose level: soluble starch 2 g/kg + test sugar 200 mg/kg; for action to suppress the increase of blood glucose level: given simultaneously with soluble starch (experiment 3)
Procedure: (§1) Thirty-six male Wistar rats of age 6 months are divided into 6 groups. The following sugars were given to the rats in the individual groups after 12-hour fasting. Before the administration and 30, 60, 90, 120 and 180 minutes after the administration, blood is drawn from the tail vein, to assay plasma glucose and insulin concentration.
1. Soluble starch 2 g/kg (SS)
2. Soluble starch 2 g/kg+L-arabinose 200 mg/kg (SSA)
3. Soluble starch 2 g/kg+D-xylose 200 mg/kg (SSX)
4. Soluble starch 2 g/kg+D-fructose 200 mg/kg (SSF)
5. Soluble starch 2 g/kg+D-psicose 200 mg/kg (SSP)
6. Soluble starch 2 g/kg+(fructose 150 mg/kg+psicose 50 mg/kg) (SSFP)
(§2) Before the administration and 30, 60, 90, 120 and 180 minutes after the administration, plasma glucose level was assayed. The plasma glucose level 180 minutes later was used to calculate the area under the curve of plasma glucose level (ΔAUC).

Male Wistar rats [3] = assay: Oral glucose tolerance test: influence of D-psicose on the reaction of increasing blood glucose; format: in vivo, rat
Procedure: Male Wistar rats of age 6 months were fed ad libitum under a condition that the bright cycle was at a temperature of 25° C. and a humidity of 50 to 70% from 8:00 am to 20:00 pm, for preliminary feeding for one week. On the day before the experiment, the rats were fasted for 12 hours and subsequently orally given D-glucose at 2 g/kg (in the form of 50% glucose solution) using a probe. Blood was drawn before the dosing and 30, 60, 90, 120, 150 and 180 minutes after the dosing. Blood glucose level was measured with a blood glucose meter. Alternatively, D-fructose or D-psicose at 0.32 g/kg (at 16% of D-glucose) was simultaneously given with D-glucose at 2 g/kg. In the same manner, blood glucose level was measured. Based on the resulting blood glucose levels, the area under the curve of blood glucose level (ΔAUC) was calculated.

maltase = assay: Maltose administration experiment (inhibition of maltase in vivo), plasma glucose; design: species or system rat; settings: rats; for Plasma glucose level, 0 min: before maltose 2 g/kg + test sugar 200 mg/kg; for Plasma glucose level, 30 min / Plasma glucose level, 60 min / Plasma glucose level, 90 min / Plasma glucose level, 120 min / ΔAUC of plasma glucose level: maltose 2 g/kg + test sugar 200 mg/kg; for action to suppress the increase of blood glucose level: given simultaneously with maltose (experiment 2)
Procedure: as §1
2. Maltose 2 g/kg+L-arabinose 200 mg/kg (MA)
3. Maltose 2 g/kg+D-xylose 200 mg/kg (MX)
4. Maltose 2 g/kg+D-fructose 200 mg/kg (MF)
5. Maltose 2 g/kg+D-psicose 200 mg/kg (MP)
6. Maltose 2 g/kg+(fructose 150 mg/kg+psicose 50 mg/kg) (MFP)
as §2

sucrase = biological target: T1, sucrase (Rattus norvegicus, UniProt P23739); assay: Sucrose administration experiment (inhibition of sucrase in vivo), plasma glucose; settings: rats; for Plasma glucose level, 0 min: before sucrose 2 g/kg + test sugar 200 mg/kg; for Plasma glucose level, 30 min / Plasma glucose level, 60 min / Plasma glucose level, 90 min / Plasma glucose level, 120 min / ΔAUC of plasma glucose level: sucrose 2 g/kg + test sugar 200 mg/kg
T1 construct: from tissue; host or cells: small intestine of live male Wistar rats (oral sugar load)
T1 sequence (P23739 whole entry): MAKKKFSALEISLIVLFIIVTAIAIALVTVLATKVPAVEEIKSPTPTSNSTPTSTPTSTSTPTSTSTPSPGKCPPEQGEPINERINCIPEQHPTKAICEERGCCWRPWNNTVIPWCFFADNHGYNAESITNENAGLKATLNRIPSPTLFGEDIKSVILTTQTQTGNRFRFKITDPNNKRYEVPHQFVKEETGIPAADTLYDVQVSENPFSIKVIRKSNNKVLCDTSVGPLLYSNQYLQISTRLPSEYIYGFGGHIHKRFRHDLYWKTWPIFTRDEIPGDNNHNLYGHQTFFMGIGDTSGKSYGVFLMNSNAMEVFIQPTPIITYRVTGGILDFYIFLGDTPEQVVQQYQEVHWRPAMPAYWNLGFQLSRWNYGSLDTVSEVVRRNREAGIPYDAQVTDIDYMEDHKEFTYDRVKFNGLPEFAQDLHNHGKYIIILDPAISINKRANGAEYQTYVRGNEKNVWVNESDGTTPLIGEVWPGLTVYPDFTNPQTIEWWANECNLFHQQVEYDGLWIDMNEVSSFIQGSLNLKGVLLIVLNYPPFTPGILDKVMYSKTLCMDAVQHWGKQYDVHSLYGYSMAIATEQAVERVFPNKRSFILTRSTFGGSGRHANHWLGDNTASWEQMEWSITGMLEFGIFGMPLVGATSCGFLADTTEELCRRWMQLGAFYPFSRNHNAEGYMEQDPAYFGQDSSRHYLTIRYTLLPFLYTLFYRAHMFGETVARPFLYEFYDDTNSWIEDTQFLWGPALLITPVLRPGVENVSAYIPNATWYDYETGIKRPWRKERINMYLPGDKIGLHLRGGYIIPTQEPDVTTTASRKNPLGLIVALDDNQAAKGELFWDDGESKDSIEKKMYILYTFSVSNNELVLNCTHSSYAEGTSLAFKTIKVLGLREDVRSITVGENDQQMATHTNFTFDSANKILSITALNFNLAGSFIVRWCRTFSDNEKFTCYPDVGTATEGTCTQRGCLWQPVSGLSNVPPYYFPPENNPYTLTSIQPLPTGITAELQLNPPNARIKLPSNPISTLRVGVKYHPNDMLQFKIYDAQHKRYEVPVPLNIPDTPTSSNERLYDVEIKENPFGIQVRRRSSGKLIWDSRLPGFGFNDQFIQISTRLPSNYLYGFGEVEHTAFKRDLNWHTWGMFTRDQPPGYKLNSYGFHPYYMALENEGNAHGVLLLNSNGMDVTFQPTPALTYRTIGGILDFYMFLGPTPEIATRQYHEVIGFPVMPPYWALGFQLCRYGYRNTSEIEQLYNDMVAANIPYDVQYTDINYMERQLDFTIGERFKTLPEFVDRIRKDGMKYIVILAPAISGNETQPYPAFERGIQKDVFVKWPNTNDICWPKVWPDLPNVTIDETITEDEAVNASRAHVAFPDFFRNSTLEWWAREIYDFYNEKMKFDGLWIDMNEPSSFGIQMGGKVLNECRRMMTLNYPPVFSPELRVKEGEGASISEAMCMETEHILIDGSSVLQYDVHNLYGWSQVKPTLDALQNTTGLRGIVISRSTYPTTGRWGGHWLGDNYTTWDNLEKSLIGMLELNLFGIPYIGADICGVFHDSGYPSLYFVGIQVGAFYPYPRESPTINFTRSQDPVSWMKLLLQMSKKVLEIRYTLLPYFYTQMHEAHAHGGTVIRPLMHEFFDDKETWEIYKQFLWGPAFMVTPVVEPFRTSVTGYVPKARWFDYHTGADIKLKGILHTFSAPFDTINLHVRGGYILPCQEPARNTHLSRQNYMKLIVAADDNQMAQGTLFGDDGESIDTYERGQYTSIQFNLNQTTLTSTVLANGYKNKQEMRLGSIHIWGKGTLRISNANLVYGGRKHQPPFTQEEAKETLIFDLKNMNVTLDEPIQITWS
Procedure: Sucrose 2 g/kg+L-arabinose 200 mg/kg (SA)
Sucrose 2 g/kg+D-xylose 200 mg/kg (SX)
Sucrose 2 g/kg+D-fructose 200 mg/kg (SF)
Sucrose 2 g/kg+D-psicose 200 mg/kg (SP)
Sucrose 2 g/kg+(fructose 150 mg/kg+psicose 50 mg/kg) (SFP)

liver = settings: in vivo; cited from earlier work

Row | SMILES | Plasma glucose level, 0 min (Male Wistar rats [2]) [mg/dL] | Plasma glucose level, 30 min (Male Wistar rats [2]) [mg/dL] | Plasma glucose level, 60 min (Male Wistar rats [2]) [mg/dL] | Plasma glucose level, 90 min (Male Wistar rats [2]) [mg/dL] | Plasma glucose level, 120 min (Male Wistar rats [2]) [mg/dL] | ΔAUC of plasma glucose level (Male Wistar rats [2]) [min^− mg/dl] | Plasma glucose level, 0 min (maltase) [mg/dL] | Plasma glucose level, 30 min (maltase) [mg/dL] | Plasma glucose level, 60 min (maltase) | Plasma glucose level, 90 min (maltase) [mg/dL] | Plasma glucose level, 120 min (maltase) [mg/dL] | ΔAUC of plasma glucose level (maltase) [min^− mg/dl] | Plasma glucose level, 0 min (sucrase) [mg/dL] | Plasma glucose level, 30 min (sucrase) | Plasma glucose level, 60 min (sucrase) | Plasma glucose level, 90 min (sucrase) | Plasma glucose level, 120 min (sucrase) [mg/dL] | ΔAUC of plasma glucose level (sucrase) [min^− mg/dl] | action to suppress the increase of blood glucose level (Male Wistar rats [2]) | action to suppress the increase of blood glucose level (maltase) | also measured
1 | O=C(CO)[C@@H](O)[C@H](O)[C@H](O)CO [D-fructose] | 92 ± 4 | 130 ± 15 | 137 ± 21 | 132 ± 13 | 130 ± 13 | 4243 | 81 ± 10 | 139 ± 15 | 156 ± 20 ab mg/dl | 152 ± 10 | 142 ± 12 | 7031 | 97 | 134 ± 13 ab mg/dl | 148 ± 12 ab mg/dl | 147 ± 9 ab mg/dl | 141 ± 7 | 4732 |  |  | reaction of increasing blood glucose via D-glucose and maltodextrin [1]: suppressed; ΔAUC of blood glucose level compared with single D-glucose administration (Male Wistar rats [3]; D-glucose 2 g/kg + 0.32 g/kg test sugar): significantly low; blood glucose level compared with single administration of D-glucose (Male Wistar rats [3]; D-glucose 2 g/kg + 0.32 g/kg test sugar, minutes after administration): significantly low in 90 and 120 minutes; increase of the blood glucose level (Male Wistar rats [3]; oral D-glucose 2 g/kg with test sugar 0.32 g/kg (16% of D-glucose) simultaneously): suppressed
2 | O=C(CO)[C@@H](O)[C@@H](O)[C@H](O)CO [D-tagatose] |  |  |  |  |  |  |  |  |  |  |  |  |  |  |  |  |  |  |  |  | histological change of liver (liver): never involved any histological change of liver
3 | O=C[C@H](O)[C@@H](O)[C@H](O)CO [D-xylose] | 99 ± 10 | 141 ± 8 | 135 ± 12 | 138 ± 16 | 131 ± 12 | 4040 | 86 ± 8 | 146 ± 14 | 172 ± 12 a mg/dl | 166 ± 20 | 150 ± 19 | 7765 | 102 | 123 ± 11 b mg/dl | 126 ± 12 b mg/dl | 130 ± 13 b mg/dl | 137 ± 16 | 2646 | scarcely suppressed | scarcely suppressed | 
4 | O=C[C@H](O)[C@@H](O)[C@@H](O)CO [L-arabinose] | 97 ± 9 | 135 ± 20 | 129 ± 22 | 128 ± 22 | 119 ± 15 | 3370 | 89 ± 7 | 139 ± 16 | 157 ± 22 ab mg/dl | 149 ± 21 | 138 ± 22 | 6087 | 93 | 139 ± 21 ab mg/dl | 142 ± 21 ab mg/dl | 139 ± 14 ab mg/dl | 142 ± 18 | 4978 | scarcely suppressed | scarcely suppressed | 
